From patent publication US20220062240A1, “METHODS OF TREATING CANCER USING A CLK INHIBITOR” (BioSplice Therapeutics, Inc., priority 2018, published 2022)
pEC50: −log10 of the molar value. Like-named read-outs stand apart in the source and are kept apart here.

Experiments:
[1] = target: T1, CLK2 (Homo sapiens, UniProt P49760); assay: CLK2 kinase activity assay (Z-lyte, Ser/Thr 6 peptide); format: biochemical; conditions: recombinant CLK2 kinase, ATP 60 μM; read-out: EC50
T1 construct: purchased Thermo Fisher (Life Technologies), Z'-LYTE Kinase Assay Kits
Description: All reactions were performed in duplicate.

[2] = test system: BT-549; assay: CellTiter-Glo Viability Assay, breast cancer; format: cell-based; conditions: Homo sapiens, 96 h; BT-549, breast cancer, four days; read-out: EC50
[3] = test system: CAMA1; assay: CellTiter-Glo Viability Assay, breast cancer; format: cell-based; conditions: Homo sapiens, CAMA-1, 96 h; CAMA1, breast cancer, four days; read-out: EC50
[4] = test system: DU4475; assay: CellTiter-Glo Viability Assay, breast cancer; format: cell-based; conditions: Homo sapiens, DU-4475, 96 h; DU4475, breast cancer, four days; read-out: EC50
[5] = test system: HCC1599; assay: CellTiter-Glo Viability Assay, breast cancer; format: cell-based; conditions: Homo sapiens, 96 h; HCC1599, breast cancer, four days; read-out: EC50
[6] = test system: MCF7; assay: CellTiter-Glo Viability Assay, breast cancer; format: cell-based; conditions: Homo sapiens, 96 h; MCF7, breast cancer, four days; read-out: EC50
[7] = test system: MDA-MB-231-Luc; assay: CellTiter-Glo Viability Assay, breast cancer; format: cell-based; conditions: Homo sapiens, 96 h; MDA-MB-231-Luc, breast cancer, four days; read-out: EC50
[8] = test system: T47D; assay: CellTiter-Glo Viability Assay, breast cancer; format: cell-based; conditions: Homo sapiens, 96 h, breast cancer, four days, read-out: EC50
[9] = test system: ZR-75-1; assay: CellTiter-Glo Viability Assay, breast cancer; format: cell-based; conditions: Homo sapiens, 96 h; ZR-75-1, breast cancer, four days; read-out: EC50
[10] = test system: all 50 cell lines; assay: CellTiter-Glo Viability Assay, average across all cell lines; format: cell-based; conditions: Homo sapiens; across all 50 cell lines; read-out: average EC50 for inhibition of cancer cell proliferation
In short: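 Luminescent ATP read-out (CellTiter-Glo) after a 4-day compound exposure at 37° C served as the viability measure. Cells were seeded at 300-3,000/well, compound wells run in duplicate against DMSO controls, and EC50 values came from fitted dose-response curves.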

[11] = test system: colorectal cancer (6 cell lines); assay: CellTiter-Glo Viability Assay, colorectal cancer; format: cell-based; conditions: Homo sapiens, inhibition of cancer cell proliferation
[12] = test system: haematopoietic & lymphoid tumors (13 cell lines); assay: CellTiter-Glo Viability Assay, haematopoietic & lymphoid tumors; format: cell-based; conditions: Homo sapiens, inhibition of cancer cell proliferation
[13] = test system: liver cancer (3 cell lines); assay: CellTiter-Glo Viability Assay, liver cancer; format: cell-based; conditions: Homo sapiens, inhibition of cancer cell proliferation
[14] = test system: lung cancer (4 cell lines); assay: CellTiter-Glo Viability Assay, lung cancer; format: cell-based; conditions: Homo sapiens, inhibition of cancer cell proliferation
[15] = test system: ovarian cancer (4 cell lines); assay: CellTiter-Glo Viability Assay, ovarian cancer; format: cell-based; conditions: Homo sapiens, inhibition of cancer cell proliferation
[16] = test system: pancreatic cancer (8 cell lines); assay: CellTiter-Glo Viability Assay, pancreatic cancer; format: cell-based; conditions: Homo sapiens, inhibition of cancer cell proliferation
[17] = test system: prostate cancer (5 cell lines); assay: CellTiter-Glo Viability Assay, prostate cancer; format: cell-based; conditions: Homo sapiens
[18] = target: CLK3 (Homo sapiens, UniProt P49761); assay: CLK3 kinase activity assay (Z-lyte, Ser/Thr 18 peptide)
Sequence of CLK3 (P49761 whole entry): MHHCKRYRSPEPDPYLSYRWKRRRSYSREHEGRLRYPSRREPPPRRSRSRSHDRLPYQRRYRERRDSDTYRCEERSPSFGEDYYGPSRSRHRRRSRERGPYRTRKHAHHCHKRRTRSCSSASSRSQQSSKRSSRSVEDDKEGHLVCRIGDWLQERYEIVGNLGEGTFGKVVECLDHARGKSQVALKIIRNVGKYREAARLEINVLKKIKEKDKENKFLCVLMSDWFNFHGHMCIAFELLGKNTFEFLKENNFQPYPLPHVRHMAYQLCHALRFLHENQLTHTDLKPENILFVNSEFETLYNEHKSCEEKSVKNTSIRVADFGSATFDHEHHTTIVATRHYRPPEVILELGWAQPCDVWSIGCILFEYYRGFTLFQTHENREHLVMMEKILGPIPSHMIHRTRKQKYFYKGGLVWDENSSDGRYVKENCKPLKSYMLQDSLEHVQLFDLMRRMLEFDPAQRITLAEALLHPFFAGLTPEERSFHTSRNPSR

T1 sequence (P49760 whole entry): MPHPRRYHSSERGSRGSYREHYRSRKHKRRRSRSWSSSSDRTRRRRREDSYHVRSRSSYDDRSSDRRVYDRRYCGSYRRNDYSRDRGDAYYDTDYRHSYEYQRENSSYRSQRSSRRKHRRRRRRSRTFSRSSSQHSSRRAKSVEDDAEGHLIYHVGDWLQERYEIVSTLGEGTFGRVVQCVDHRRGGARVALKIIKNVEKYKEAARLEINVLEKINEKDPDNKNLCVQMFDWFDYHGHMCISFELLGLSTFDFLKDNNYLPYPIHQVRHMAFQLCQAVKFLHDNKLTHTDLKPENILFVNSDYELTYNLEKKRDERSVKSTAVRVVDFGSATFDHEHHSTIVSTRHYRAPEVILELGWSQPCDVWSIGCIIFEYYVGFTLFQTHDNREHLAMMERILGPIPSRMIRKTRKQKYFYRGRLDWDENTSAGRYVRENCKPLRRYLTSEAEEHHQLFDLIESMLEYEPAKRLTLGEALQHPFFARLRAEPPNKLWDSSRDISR

pEC50 [1]: 9.05
pEC50 [2]: 6.13
pEC50 [3]: 6.60
pEC50 [4]: 6.77
pEC50 [5]: 7.24
pEC50 [6]: 5.80
pEC50 [7]: 6.25
pEC50 [8]: 6.53
pEC50 [9]: 6.13
EC50 ([11]; HCT-116, HCT116 cell line, read-out: Colorectal cancer, EC50 (μM) HCT116): 0.639 µM
EC50 ([11]; HT-29, HT29 cell line, read-out: Colorectal cancer, EC50 (μM) HT29): 2.52 µM
EC50 ([11]; SW-620, SW620 cell line, read-out: Colorectal cancer, EC50 (μM) SW620): 0.455 µM
EC50 ([11]; DLD-1 cell line, read-out: Colorectal cancer, EC50 (μM) DLD-1): 1.76 µM
EC50 ([11]; SW48 cell line, read-out: Colorectal cancer, EC50 (μM) SW48): 0.174 µM
EC50 ([11]; SW480 cell line, read-out: Colorectal cancer, EC50 (μM) SW480): 0.486 µM
EC50 ([12]; DND41, DND-41 cell line, read-out: Haematopoietic & Lymphoid tumors, EC50 (μM) DND-41): 0.154 µM
EC50 ([12]; MV4-11, MV-4-11 cell line, read-out: Haematopoietic & Lymphoid tumors, EC50 (μM) MV-4-11): 0.088 µM
EC50 ([12]; Rec1, REC-1 cell line, read-out: Haematopoietic & Lymphoid tumors, EC50 (μM) REC-1): 1.45 µM
EC50 ([12]; SU-DHL-4, SUDHL4 cell line, read-out: Haematopoietic & Lymphoid tumors, EC50 (μM) SUDHL4): 0.641 µM
EC50 ([12]; HL-60 cell line, read-out: Haematopoietic & Lymphoid tumors, EC50 (μM) HL-60): 3.24 µM
EC50 ([12]; JM1 cell line, read-out: Haematopoietic & Lymphoid tumors, EC50 (μM) JM1): 0.121 µM
EC50 ([12]; JURKAT, Clone E6-1 cell line, read-out: Haematopoietic & Lymphoid tumors, EC50 (μM) JURKAT, Clone E6-1): 1.42 µM
EC50 ([12]; JeKo-1 cell line, read-out: Haematopoietic & Lymphoid tumors, EC50 (μM) JeKo-1): 0.039 µM
EC50 ([12]; KASUMI-1 cell line, read-out: Haematopoietic & Lymphoid tumors, EC50 (μM) KASUMI-1): 0.685 µM
EC50 ([12]; Loucy cell line, read-out: Haematopoietic & Lymphoid tumors, EC50 (μM) Loucy): 0.207 µM
EC50 ([12]; MOLT-4 cell line, read-out: Haematopoietic & Lymphoid tumors, EC50 (μM) MOLT-4): 0.503 µM
EC50 ([12]; TF-1 cell line, read-out: Haematopoietic & Lymphoid tumors, EC50 (μM) TF-1): 3.05 µM
EC50 ([12]; TOLEDO cell line, read-out: Haematopoietic & Lymphoid tumors, EC50 (μM) TOLEDO): 0.219 µM
pEC50 ([13]; SNU-398, SNU398 cell line, read-out: Liver cancer, EC50 SNU398): 6.92
pEC50 ([13]; HEPG2 cell line, read-out: Liver cancer, EC50 HEPG2): 6.34
pEC50 ([13]; PLC/PRF/5 cell line, read-out: Liver cancer, EC50 PLC/PRF/5): 5.69
EC50 ([14]; A-427, A427 cell line, read-out: Lung cancer, EC50 (μM) A427): 0.35 µM
EC50 ([14]; HCC78, HCC-78 cell line, read-out: Lung cancer, EC50 (μM) HCC-78): 1.69 µM
EC50 ([14]; NCI-H460 cell line, read-out: Lung cancer, EC50 (μM) NCI-H460): 2.65 µM
EC50 ([14]; NCI-H522 cell line, read-out: Lung cancer, EC50 (μM) NCI-H522): 0.191 µM
EC50 ([15]; PA-1, PA1 cell line, read-out: Ovarian cancer, EC50 (μM) PA1): 0.405 µM
EC50 ([15]; TOV112D, TOV-112D cell line, read-out: Ovarian cancer, EC50 (μM) TOV-112D): 0.475 µM
EC50 ([15]; OV-90 cell line, read-out: Ovarian cancer, EC50 (μM) OV-90): 1.08 µM
EC50 ([15]; OVCAR-3 cell line, read-out: Ovarian cancer, EC50 (μM) OVCAR-3): 0.116 µM
pEC50 ([16]; BXPC-3, BxPC3 cell line, read-out: Pancreatic cancer, EC50 BxPC3): 5.57
pEC50 ([16]; CAPAN-1, Capan1 cell line, read-out: Pancreatic cancer, EC50 Capan1): 5.72
pEC50 ([16]; Capan-2, Capan2 cell line, read-out: Pancreatic cancer, EC50 Capan2): 5.89
pEC50 ([16]; MIA PaCa-2 cell line, read-out: Pancreatic cancer, EC50 MIA PaCa-2): 6.48
pEC50 ([16]; PANC 05.04 cell line, read-out: Pancreatic cancer, EC50 PANC 05.04): 5.93
pEC50 ([16]; PANC-1 cell line, read-out: Pancreatic cancer, EC50 PANC-1): 5.41
pEC50 ([16]; UPAFII cell line, read-out: Pancreatic cancer, EC50 UPAFII): 6.40
pEC50 ([17]; DU-145, read-out: Prostate cancer EC50 Du-145): 5.92
pEC50 ([17]; PC-3, PC3 cell line, inhibition of cancer cell proliferation, read-out: Prostate cancer EC50 PC3): 6.08
pEC50 ([17]; 22Rv1 cell line, inhibition of cancer cell proliferation, read-out: Prostate cancer EC50 22Rv1): 6.44
pEC50 ([17]; LNCap clone FGC cell line, inhibition of cancer cell proliferation, read-out: Prostate cancer EC50 LNCap clone FGC): 5.37
pEC50 ([17]; VCaP (Sigma) cell line, inhibition of cancer cell proliferation, read-out: Prostate cancer EC50 VCaP (Sigma)): 5.46
pEC50 [18]: 7.89
Compound: CN1CCN(c2ccc(NC(=O)c3n[nH]c4ccc(-c5cncc(NC(=O)C6CC6)c5)cc34)cn2)CC1 [Compound 60]
pEC50 [10]: 5.97
